Reference: patent US7842802B2, “Vinorelbine derivatives” (priority 2003, dated 2010)
Read-outs that look alike come from different tables or passages of the source.

Key:
[1] = tested on: BT-549; assay: NCI 60-cell line growth inhibition assay, BT-549; type: cell-based, human; conditions: Breast
Text: (§1) The following data in Table 4 summarize the growth inhibition properties of several compounds of the present invention against 60-human transformed cell lines.

[2] = tested on: SNB-75; assay: NCI 60-cell line growth inhibition assay, SNB-75; type: cell-based, human; conditions: CNS
Text: as §1

[3] = tested on: HCT-116; assay: NCI 60-cell line growth inhibition assay, HCT-116; type: cell-based, human; conditions: Colon
Text: as §1

[4] = tested on: CCRF-CEM; assay: NCI 60-cell line growth inhibition assay, CCRF-CEM; type: cell-based, human; conditions: Leukemia
Text: as §1

[5] = tested on: RPMI-8226; assay: NCI 60-cell line growth inhibition assay, RPMI-8226; type: cell-based, human
Text: as §1

[6] = tested on: LOX IMVI; assay: NCI 60-cell line growth inhibition assay, LOX IMVI; type: cell-based, human; conditions: Melanoma
Text: as §1

[7] = tested on: HOP-62; assay: NCI 60-cell line growth inhibition assay, HOP-62; type: cell-based, human; conditions: Non-Small Cell Lung
Text: as §1

[8] = tested on: NCI-H23; assay: NCI 60-cell line growth inhibition assay, NCI-H23; type: cell-based, human; conditions: Non-Small Cell Lung
Text: as §1

[9] = tested on: NCI-H322M; assay: NCI 60-cell line growth inhibition assay, NCI-H322M; type: cell-based, human; conditions: Non-Small Cell Lung
Text: as §1

[10] = tested on: IGROV1; assay: NCI 60-cell line growth inhibition assay, IGROV1; type: cell-based, human
Text: as §1

[11] = tested on: OVCAR-3; assay: NCI 60-cell line growth inhibition assay, OVCAR-3; type: cell-based, human; conditions: Ovarian
Text: as §1

[12] = tested on: 786-0; assay: NCI 60-cell line growth inhibition assay, 786-0; type: cell-based, human; conditions: Renal
Text: as §1

[13] = tested on: A498; assay: NCI 60-cell line growth inhibition assay, A498; type: cell-based, human; conditions: Renal
Text: as §1

[14] = tested on: CAKI-1; assay: NCI 60-cell line growth inhibition assay, CAKI-1; type: cell-based, human; conditions: Renal
Text: as §1

[15] = tested on: TK-10; assay: NCI 60-cell line growth inhibition assay, TK-10; type: cell-based, human; conditions: Renal
Text: as §1

[16] = tested on: UO-31; assay: NCI 60-cell line growth inhibition assay, UO-31; type: cell-based, human; conditions: Renal
Text: as §1

[17] = tested on: SNB-19; assay: NCI 60-cell line growth inhibition assay, SNB-19; type: cell-based; conditions: Homo sapiens, CNS
Text: as §1

[18] = tested on: COLO 205; assay: NCI 60-cell line growth inhibition assay, COLO 205; type: cell-based; conditions: Homo sapiens, Colon
Text: as §1

[19] = tested on: HCC-2998; assay: NCI 60-cell line growth inhibition assay, HCC-2998; type: cell-based; conditions: Homo sapiens, Colon
Text: as §1

[20] = tested on: MOLT-4; assay: NCI 60-cell line growth inhibition assay, MOLT-4; type: cell-based; conditions: Homo sapiens, Leukemia
Text: as §1

[21] = tested on: SK-MEL-28; assay: NCI 60-cell line growth inhibition assay, SK-MEL-28; type: cell-based; conditions: Homo sapiens, Melanoma
Text: as §1

[22] = tested on: SK-MEL-5; assay: NCI 60-cell line growth inhibition assay, SK-MEL-5; type: cell-based; conditions: Homo sapiens, Melanoma
Text: as §1

[23] = tested on: EKVX; assay: NCI 60-cell line growth inhibition assay, EKVX; type: cell-based; conditions: Homo sapiens, Non-Small Cell Lung
Text: as §1

[24] = tested on: OVCAR-4; assay: NCI 60-cell line growth inhibition assay, OVCAR-4; type: cell-based; conditions: Homo sapiens, Ovarian
Text: as §1

[25] = tested on: OVCAR-5; assay: NCI 60-cell line growth inhibition assay, OVCAR-5; type: cell-based; conditions: Homo sapiens, Ovarian
Text: as §1

[26] = tested on: SK-OV-3; assay: NCI 60-cell line growth inhibition assay, SK-OV-3; type: cell-based; conditions: Homo sapiens, Ovarian
Text: as §1

Compound: 11′-bromovinorelbine [Example 1]
- GI50 [1]: < 10 nM
- GI50 [2]: 15100 nM
- GI50 [3]: < 10 nM
- GI50 [4]: < 10 nM
- GI50 [5]: < 10 nM
- GI50 ([5]; Leukemia): < 10 nM
- GI50 [6]: < 10 nM
- GI50 [7]: < 10 nM
- GI50 [8]: < 10 nM
- GI50 [9]: < 10 nM
- GI50 ([10]; Ovarian): < 10 nM
- GI50 [11]: < 10 nM
- GI50 [12]: < 10 nM
- GI50 [13]: < 10 nM
- GI50 [14]: < 10 nM
- GI50 [15]: < 10 nM
- GI50 [16]: < 10 nM

Compound: CCC1=C[C@H]2CN(C1)Cc1c([nH]c3ccc(I)cc13)[C@@](C(=O)OC)(c1cc3c(cc1OC)N(C)[C@H]1[C@@](O)(C(=O)OC)[C@H](OC(C)=O)C4C(CC)=CCN5CC[C@]31[C@H]45)C2 (stereo partly drawn) [Example 2, 11′-iodovinorelbine]
- GI50 [17]: 62.5 nM
- GI50 ([2]; Homo sapiens): 40.4 nM
- GI50 [18]: 17.9 nM
- GI50 [19]: < 10 nM
- GI50 ([4]; Homo sapiens): 37.9 nM
- GI50 [20]: 24.1 nM
- GI50 ([5]; Homo sapiens, Leukemia): 16.7 nM
- GI50 ([6]; Homo sapiens): 31.3 nM
- GI50 [21]: 91.4 nM
- GI50 [22]: 18.8 nM
- GI50 [23]: 72.6 nM
- GI50 ([7]; Homo sapiens): 37 nM
- GI50 ([8]; Homo sapiens): 52.8 nM
- GI50 ([10]; Homo sapiens, IGROV-1, Ovarian): 32.4 nM
- GI50 [24]: 264 nM
- GI50 [25]: 225 nM
- GI50 [26]: 63.3 nM
- GI50 ([15]; Homo sapiens): 298 nM
- GI50 ([16]; Homo sapiens): 674 nM
